Experimental data: patent publication US11345762B2, “Method for preparing liquid medium composition, and preparation device and kit therefor” (NISSAN CHEMICAL INDUSTRIES, LTD., priority 2015, dated 2022)

Tested on: Human lung cancer cell line A549
Test: A549 cell proliferation suppressive test with anticancer agents in low adhesion plate (ATP, CellTiter-Glo)
Assay type: cell-based
Procedure: Deacylated gellan gum (KELCOGEL CG-LA, manufactured by Sansho Co., Ltd.) was suspended in ultra pure water (Milli-Q water) to 0.3% (w/v) or 0.75% (w/v), dissolved by stirring with heating at 90° C., and this aqueous solution was autoclave sterilized at 121° C. for 20 min. Using 0.3% solution, a medium composition was prepared by adding deacylated gellan gum (final concentration 0.015% (w/v)) to DMEM medium (manufactured by WAKO) containing 10% (v/v) fetal bovine serum. Fetal bovine serum was added at 10% (v/v) to a medium composition prepared in Example 7.
Human lung cancer cell line A549 (manufactured by DS PHARMA BIOMEDICAL) was seeded in the above-mentioned medium composition added with deacylated gellan gum (conventional method) or the medium composition of Example 7 at 14800 cells/mL, and dispensed to the wells of a 96 well flat bottom ultra-low adhesive surface microplate (Corning Incorporated manufactured by, #3474) at 135 μL per […]. As a negative control, A549 cells were suspended in the above-mentioned medium free of deacylated gellan gum and dispensed. Each plate was cultured in a static state in a CO2 incubator (37° C., 5% CO2). On day 1 of culture, medium compositions (conventional method and the production method of the present invention) containing each anticancer agent at 10-fold concentration and deacylated gellan gum (final concentration 0.015% (w/v)), and a medium composition containing each anticancer agent alone at 10-fold concentration (non-addition method), 15 μL each, was added to a final concentration of 0.001 to 30 μM, and culture was continued for 7 days. As the anticancer agent, Trametinib (manufactured by Santa Cruz, MEK inhibitor) and MK-2206 (manufactured by Santa Cruz, Akt inhibitor) were used. ATP reagent (150 μL, CellTiter-Glo™ Luminescent Cell Viability Assay, manufactured by Promega) was added to the culture media on days 5 and 8 and suspended therein, stood for about 10 min at room temperature, and the luminescence intensity (RLU value) was measured by FlexStation3 (manufactured by Molecular Devices), from which the luminescence with the medium alone was subtracted to measure the number of viable cells.

## NC1(c2ccc(-c3nc4ccn5c(=O)[nH]nc5c4cc3-c3ccccc3)cc2)CCC1 [MK-2206]
A549, day 4 of static culture, 0.03 μM, conventional method
  % control of RLU value (ATP measurement, luminescence intensity): 100 % Control
A549, day 4 of static culture, 0.03 μM, non-addition method
  % control of RLU value (ATP measurement, luminescence intensity): 108 % Control
A549, day 4 of static culture, 0.03 μM, production method of present invention
  % control of RLU value (ATP measurement, luminescence intensity): 85 % Control
A549, day 4 of static culture, 0.1 μM, conventional method
  % control of RLU value (ATP measurement, luminescence intensity): 91 % Control
A549, day 4 of static culture, 0.1 μM, non-addition method
  % control of RLU value (ATP measurement, luminescence intensity): 99 % Control
A549, day 4 of static culture, 0.1 μM, production method of present invention
  % control of RLU value (ATP measurement, luminescence intensity): 74 % Control
A549, day 4 of static culture, 0.3 μM, conventional method
  % control of RLU value (ATP measurement, luminescence intensity): 71 % Control
A549, day 4 of static culture, 0.3 μM, non-addition method
  % control of RLU value (ATP measurement, luminescence intensity): 93 % Control
A549, day 4 of static culture, 0.3 μM, production method of present invention
  % control of RLU value (ATP measurement, luminescence intensity): 60 % Control
A549, day 4 of static culture, 1 μM, conventional method
  % control of RLU value (ATP measurement, luminescence intensity): 50 % Control
A549, day 4 of static culture, 1 μM, non-addition method
  % control of RLU value (ATP measurement, luminescence intensity): 78 % Control
A549, day 4 of static culture, 1 μM, production method of present invention
  % control of RLU value (ATP measurement, luminescence intensity): 43 % Control
A549, day 4 of static culture, 3 μM, conventional method
  % control of RLU value (ATP measurement, luminescence intensity): 38 % Control
A549, day 4 of static culture, 3 μM, non-addition method
  % control of RLU value (ATP measurement, luminescence intensity): 62 % Control
A549, day 4 of static culture, 3 μM, production method of present invention
  % control of RLU value (ATP measurement, luminescence intensity): 33 % Control
A549, day 7 of static culture, 0.03 μM, conventional method
  % control of RLU value (ATP measurement, luminescence intensity): 92 % Control
A549, day 7 of static culture, 0.03 μM, non-addition method
  % control of RLU value (ATP measurement, luminescence intensity): 124 % Control
A549, day 7 of static culture, 0.03 μM, production method of present invention
  % control of RLU value (ATP measurement, luminescence intensity): 80 % Control
A549, day 7 of static culture, 0.1 μM, conventional method
  % control of RLU value (ATP measurement, luminescence intensity): 83 % Control
A549, day 7 of static culture, 0.1 μM, non-addition method
  % control of RLU value (ATP measurement, luminescence intensity): 101 % Control
A549, day 7 of static culture, 0.1 μM, production method of present invention
  % control of RLU value (ATP measurement, luminescence intensity): 69 % Control
A549, day 7 of static culture, 0.3 μM, conventional method
  % control of RLU value (ATP measurement, luminescence intensity): 63 % Control
A549, day 7 of static culture, 0.3 μM, non-addition method
  % control of RLU value (ATP measurement, luminescence intensity): 103 % Control
A549, day 7 of static culture, 0.3 μM, production method of present invention
  % control of RLU value (ATP measurement, luminescence intensity): 54 % Control
A549, day 7 of static culture, 1 μM, conventional method
  % control of RLU value (ATP measurement, luminescence intensity): 38 % Control
A549, day 7 of static culture, 1 μM, non-addition method
  % control of RLU value (ATP measurement, luminescence intensity): 85 % Control
A549, day 7 of static culture, 1 μM, production method of present invention
  % control of RLU value (ATP measurement, luminescence intensity): 34 % Control
A549, day 7 of static culture, 3 μM, conventional method
  % control of RLU value (ATP measurement, luminescence intensity): 26 % Control
A549, day 7 of static culture, 3 μM, non-addition method
  % control of RLU value (ATP measurement, luminescence intensity): 76 % Control
A549, day 7 of static culture, 3 μM, production method of present invention
  % control of RLU value (ATP measurement, luminescence intensity): 21 % Control
A549, medium composition of the present invention
  efficacy on A549 cell proliferation in the medium composition of the present invention (in words): strong efficacy

## CC(=O)O[C@H]1C(=O)[C@@]2(C)[C@H]([C@H](OC(=O)c3ccccc3)[C@]3(O)C[C@H](OC(=O)[C@H](O)[C@@H](NC(=O)c4ccccc4)c4ccccc4)C(C)=C1C3(C)C)[C@]1(OC(C)=O)CO[C@@H]1C[C@@H]2O [Paclitaxel]
A549, day 4 of static culture, 0.001 μM, conventional method
  % control of RLU value (ATP measurement, luminescence intensity): 98 % Control
A549, day 4 of static culture, 0.001 μM, non-addition method
  % control of RLU value (ATP measurement, luminescence intensity): 112 % Control
A549, day 4 of static culture, 0.001 μM, production method of present invention
  % control of RLU value (ATP measurement, luminescence intensity): 91 % Control
A549, day 4 of static culture, 0.01 μM, conventional method
  % control of RLU value (ATP measurement, luminescence intensity): 31 % Control
A549, day 4 of static culture, 0.01 μM, non-addition method
  % control of RLU value (ATP measurement, luminescence intensity): 57 % Control
A549, day 4 of static culture, 0.01 μM, production method of present invention
  % control of RLU value (ATP measurement, luminescence intensity): 32 % Control
A549, day 7 of static culture, 0.001 μM, conventional method
  % control of RLU value (ATP measurement, luminescence intensity): 90 % Control
A549, day 7 of static culture, 0.001 μM, non-addition method
  % control of RLU value (ATP measurement, luminescence intensity): 116 % Control
A549, day 7 of static culture, 0.001 μM, production method of present invention
  % control of RLU value (ATP measurement, luminescence intensity): 84 % Control
A549, day 7 of static culture, 0.01 μM, conventional method
  % control of RLU value (ATP measurement, luminescence intensity): 12 % Control
A549, day 7 of static culture, 0.01 μM, non-addition method
  % control of RLU value (ATP measurement, luminescence intensity): 49 % Control
A549, day 7 of static culture, 0.01 μM, production method of present invention
  % control of RLU value (ATP measurement, luminescence intensity): 12 % Control
